Reference: paper PMC6522981, “Structure-based design generated novel hydroxamic acid based preferential HDAC6 lead inhibitor with on-target cytotoxic activity against primary choroid plexus carcinoma” (Journal of Enzyme Inhibition and Medicinal Chemistry, 2019)
Where two headings read alike, the source gives them in different places.

Experiments:
[1] = molecular target: T1, human HDAC6 (Homo sapiens, UniProt Q9UBN7); assay: IC50 of the test inhibitor against HDAC6 (10-dose enzymatic assay); format: biochemical; parameters: purchased BPS Bioscience 50006; conditions: for activity at 0.0003 µM: 0.0003 µM compound; for activity at 0.001 µM: 0.001 µM compound; for activity at 0.003 µM: 0.003 µM compound; for activity at 0.01 µM: 0.01 µM compound; for activity at 0.03 µM: 0.03 µM compound; for activity at 0.1 µM: 0.1 µM compound; for activity at 0.3 µM: 0.3 µM compound; for activity at 1 µM: 1 µM compound; for activity at 3 µM: 3 µM compound; for activity at 10 µM: 10 µM compound
T1 sequence (Q9UBN7 1-1215): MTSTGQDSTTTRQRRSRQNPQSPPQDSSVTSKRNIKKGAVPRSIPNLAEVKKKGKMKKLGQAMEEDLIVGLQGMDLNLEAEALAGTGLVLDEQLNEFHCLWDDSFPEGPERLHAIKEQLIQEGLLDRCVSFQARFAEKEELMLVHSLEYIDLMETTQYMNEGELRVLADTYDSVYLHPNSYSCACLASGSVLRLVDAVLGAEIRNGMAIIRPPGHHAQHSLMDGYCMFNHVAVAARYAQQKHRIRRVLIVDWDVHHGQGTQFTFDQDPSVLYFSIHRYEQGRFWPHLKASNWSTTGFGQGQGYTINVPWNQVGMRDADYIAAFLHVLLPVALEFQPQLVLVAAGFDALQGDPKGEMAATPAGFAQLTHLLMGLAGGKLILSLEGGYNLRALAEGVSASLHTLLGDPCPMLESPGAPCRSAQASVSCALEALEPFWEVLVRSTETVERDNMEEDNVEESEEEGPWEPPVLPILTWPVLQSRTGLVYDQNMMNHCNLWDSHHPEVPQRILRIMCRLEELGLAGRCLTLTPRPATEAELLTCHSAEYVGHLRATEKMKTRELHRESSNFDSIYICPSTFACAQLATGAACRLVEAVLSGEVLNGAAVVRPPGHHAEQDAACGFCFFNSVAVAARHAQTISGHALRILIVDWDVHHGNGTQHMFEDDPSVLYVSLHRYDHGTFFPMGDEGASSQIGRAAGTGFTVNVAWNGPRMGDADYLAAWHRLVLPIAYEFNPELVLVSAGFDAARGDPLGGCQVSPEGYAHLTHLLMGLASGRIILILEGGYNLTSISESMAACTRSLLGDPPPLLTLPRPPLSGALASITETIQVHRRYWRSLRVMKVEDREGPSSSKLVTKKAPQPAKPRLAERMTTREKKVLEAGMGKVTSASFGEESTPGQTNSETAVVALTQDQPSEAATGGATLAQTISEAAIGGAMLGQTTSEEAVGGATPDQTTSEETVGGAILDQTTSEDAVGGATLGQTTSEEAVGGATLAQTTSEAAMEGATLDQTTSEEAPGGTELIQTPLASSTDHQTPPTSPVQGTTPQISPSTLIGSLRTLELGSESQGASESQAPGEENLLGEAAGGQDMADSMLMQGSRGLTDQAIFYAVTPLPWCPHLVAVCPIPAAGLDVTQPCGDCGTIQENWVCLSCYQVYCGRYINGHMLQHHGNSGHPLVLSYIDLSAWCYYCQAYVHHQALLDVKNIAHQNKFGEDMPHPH

[2] = molecular target: T2, human HDAC7 (Homo sapiens, UniProt Q8WUI4); assay: HDAC7 inhibitor enzymatic assay, % inhibition at fixed concentration; conditions: read-out: %inhibition of HDACs at 10µM of test compound HDAC7
T2 sequence (Q8WUI4 479-952 limits assumed): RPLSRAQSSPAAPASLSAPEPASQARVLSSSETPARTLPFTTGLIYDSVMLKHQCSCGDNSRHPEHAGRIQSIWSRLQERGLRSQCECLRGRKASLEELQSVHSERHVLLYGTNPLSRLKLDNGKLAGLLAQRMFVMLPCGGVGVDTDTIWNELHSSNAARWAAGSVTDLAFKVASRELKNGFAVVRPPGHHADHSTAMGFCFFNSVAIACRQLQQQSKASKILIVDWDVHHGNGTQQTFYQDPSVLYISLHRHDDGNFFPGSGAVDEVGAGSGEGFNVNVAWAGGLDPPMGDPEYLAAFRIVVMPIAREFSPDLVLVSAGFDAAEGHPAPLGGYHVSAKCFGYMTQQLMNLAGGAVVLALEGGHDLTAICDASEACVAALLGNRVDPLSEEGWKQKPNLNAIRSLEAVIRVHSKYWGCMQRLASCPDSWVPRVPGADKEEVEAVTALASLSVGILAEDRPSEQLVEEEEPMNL

[3] = molecular target: T3, human HDAC2 (Homo sapiens, UniProt Q92769); assay: HDAC2 inhibitor enzymatic assay, % inhibition at fixed concentration; format: biochemical; conditions: read-out: %inhibition of HDACs at 10µM of test compound HDAC2; 10 µM compound; mean of two replicates
T3 construct: purchased BPS Bioscience 50002

[4] = molecular target: human HDAC3/NCOR2 (Homo sapiens, UniProt O15379); assay: HDAC3/NCOR2 inhibitor enzymatic assay, % inhibition at fixed concentration; conditions: read-out: %inhibition of HDACs at 10µM of test compound HDAC3
[5] = Repeat1, read-out: HDAC6 % Activity Repeat1
[6] = Repeat2, read-out: HDAC6 % Activity Repeat2

Chain of human HDAC3/NCOR2 (O15379 whole entry): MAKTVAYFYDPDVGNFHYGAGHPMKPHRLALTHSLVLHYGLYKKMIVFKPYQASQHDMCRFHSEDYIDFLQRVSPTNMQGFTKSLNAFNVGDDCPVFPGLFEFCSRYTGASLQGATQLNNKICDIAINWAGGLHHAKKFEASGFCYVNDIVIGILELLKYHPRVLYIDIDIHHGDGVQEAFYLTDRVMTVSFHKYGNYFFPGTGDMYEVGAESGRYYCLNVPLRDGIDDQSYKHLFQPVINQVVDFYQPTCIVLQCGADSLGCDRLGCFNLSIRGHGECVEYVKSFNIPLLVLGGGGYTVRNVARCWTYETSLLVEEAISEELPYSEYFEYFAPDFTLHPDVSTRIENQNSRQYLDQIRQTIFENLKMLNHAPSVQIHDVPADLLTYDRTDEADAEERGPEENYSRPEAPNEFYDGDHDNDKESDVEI
Chain of human HDAC3/NCOR2 (Q9Y618 395-489 partner limits assumed): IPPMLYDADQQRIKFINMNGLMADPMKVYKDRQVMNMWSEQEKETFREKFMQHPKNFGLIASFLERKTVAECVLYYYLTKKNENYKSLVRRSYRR
T3 sequence (Q92769 whole entry): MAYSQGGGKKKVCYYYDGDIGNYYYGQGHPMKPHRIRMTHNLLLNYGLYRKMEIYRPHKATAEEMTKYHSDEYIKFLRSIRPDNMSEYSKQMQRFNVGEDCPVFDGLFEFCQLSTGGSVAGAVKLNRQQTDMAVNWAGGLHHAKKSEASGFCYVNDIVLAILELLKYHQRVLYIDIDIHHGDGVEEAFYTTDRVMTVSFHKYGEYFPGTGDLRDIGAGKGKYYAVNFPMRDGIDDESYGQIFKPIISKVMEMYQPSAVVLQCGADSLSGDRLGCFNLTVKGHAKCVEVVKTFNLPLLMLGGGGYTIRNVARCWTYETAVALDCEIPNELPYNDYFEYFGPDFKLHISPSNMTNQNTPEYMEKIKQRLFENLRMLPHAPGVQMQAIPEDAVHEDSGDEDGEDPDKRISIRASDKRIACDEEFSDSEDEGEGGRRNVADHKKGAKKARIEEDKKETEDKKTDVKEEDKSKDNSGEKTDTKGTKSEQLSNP

- activity at 0.0003 µM [1, 5]: 100%
- activity at 0.0003 µM [1, 6]: 99%
- activity at 0.001 µM [1, 5]: 98%
- activity at 0.001 µM [1, 6]: 100%
- activity at 0.003 µM [1, 5]: 100%
- activity at 0.003 µM [1, 6]: 95%
- activity at 0.01 µM [1, 5]: 95%
- activity at 0.01 µM [1, 6]: 100%
- activity at 0.03 µM [1, 5]: 93%
- activity at 0.03 µM [1, 6]: 94%
- activity at 0.1 µM [1, 5]: 86%
- activity at 0.1 µM [1, 6]: 82%
- activity at 0.3 µM [1, 5]: 61%
- activity at 0.3 µM [1, 6]: 63%
- activity at 1 µM [1, 5]: 33%
- activity at 1 µM [1, 6]: 33%
- activity at 3 µM [1, 5]: 13%
- activity at 3 µM [1, 6]: 14%
- activity at 10 µM [1, 5]: 5%
- activity at 10 µM [1, 6]: 5%
- inhibition at 10 µM [2]: 2%
- inhibition at 10 µM [3]: 19%
- inhibition at 10 µM [4]: 37%
Compound: O=C(CCCSc1nc2ccccc2n1Cc1ccccc1)NO [Compound 10a, 4-((1-benzyl-1H-benzo[d]imidazol-2-yl)thio)-N-hydroxybutanamide]
